Holding throughout (assay type): binding, mASH1L
Assay [1] deals with T1, ASH1L PHD finger (Mus musculus, UniProt Q99MY8).
T1 construct: The mASH1L PHD domain (residue 2573–2624); MBP (cleaved yes); made in house; host or cells: Escherichia coli BL21 (DE3)
In words: ITC, ASH1L PHD finger with H3 peptides. To be noted: 1×PBS, 100-μM ZnCl2, pH 7.2. For orientation: In ITC the heat of successive injections is recorded.
Method: The bacteria were grown in Luria Broth (LB) media, supplemented with 100-μM ZnCl2 (all PHD constructs). All PHD domains were expressed in Escherichia coli BL21 (DE3) cells and induced overnight with 0.5-mM isopropyl-β-D-1-thiogalactopyranoside (IPTG) at 22°C. In addition, the cells were harvested by centrifugation at 4,000 g. The harvested cells with MBP-tagged PHD were resuspended in buffer containing 25-mM Tris, pH 7.2, 1-M NaCl, 20-mM β-mercaptoethanol, 100-μM ZnCl2, and the Complete EDTA-free Protease Inhibitor (Roche, Mannheim, Germany). Following lysis in a microfluidizer (MFIC), cell debris was removed by centrifugation at 12,000 g for 1 h and the supernatant was loaded on a 5-ml MBPTrap HP column (GE Healthcare). The binding protein was eluted with buffer containing 25-mM Tris, pH 7.2, 500-mM NaCl, 20-mM β-mercaptoethanol, 20-mM maltose, and 100-μM ZnCl2. After TEV cleavage, the PHD domain was supplemented with 20-mM DTT and further purified using a Superdex 75 column (GE Healthcare, Uppsala, Sweden) in a final buffer containing 1×PBS, pH 7.2, 100- μM ZnCl2. […] The PHD protein was concentrated with a filter tube (Millipore, Co. Cork, Ireland) and measured by UV absorbance at 280 nm.
ITC assays were carried out on the MicroCal iTC200 System (Malvern) at 25°C while stirring at 750 rpm in the ITC buffer of pH 7.2, consisting of 1×PBS, 100-μM ZnCl2. […] The PHD or tandem Bromo-PHD protein sample of 100 µM was placed in the cell and titrated with 3 mM of a different peptide solution in the ITC buffer using a set of 31 injections of 1.2 μl, following a single initial injection of 0.2 μl. In the ITC measurements of PHD mutant samples, the H3 (1–15) peptides were diluted to the final concentrations of 1.5 mM, titrated with a single initial injection of 0.4 μl and followed with a set of 19 injections of 2 μl. Cumulative enthalpy exchange plots were derived from the raw thermal changes, using one set of a site-fitting model.

Assay [2] has as its target T1, ASH1L PHD finger. In words: 1H,15N HSQC chemical shift perturbation. To be noted: protein-to-peptide molar ratio 1:5; 298 K, 800 MHz, 1×PBS, pH 7.2, 100-μM ZnCl2. An excerpt: (§1) The mASH1L PHD domain (residue 2573–2624) was subcloned into a modified pMAL-c5X expression vector (New England Biolabs, Ipswich, MA, US), which contains an MBP tag and a TEV cleavage site. The site-directed mutagenesis of D2573A, I2575A, D2584E, E2585A, M2588A, Q2590E, and W2597A in the PHD domain was generated using the PfuTurbo DNA polymerase (Agilent Technologies) and Dpn I restriction enzyme (New England Biolabs). After the MBP tag was cut by TEV, these proteins were used in ITC and NMR experiments. The His-tagged PHD domain was subcloned into a pGEX-4T1 expression vector. The base vector has a GST tag and was engineered to include a TEV cleavage site before a 5′ 6×His sequence. […]
(§2) The bacteria were grown in Luria Broth (LB) media, supplemented with 100-μM ZnCl2 (all PHD constructs). […] The size and purity of the purified protein were monitored by SDS-PAGE. The PHD protein was concentrated with a filter tube (Millipore, Co. Cork, Ireland) and measured by UV absorbance at 280 nm.
(§3) The ^1H,^15N HSQC spectra of the ^15N-labeled PHD finger were collected at 298 K on a Bruker 800-MHz NMR spectrometer equipped with the z-gradient triple-resonance cryoprobe. The binding was analyzed through monitoring chemical shift perturbations observed in the two-dimensional ^1H,^15N HSQC spectra of PHD finger upon the addition of H3 (aa 1-15) peptides (H3K4me, H3K4me2, H3K4me3). […]

The next assay concerns the target T2, ASH1L PHD M2588A (Mus musculus, UniProt Q99MY8, M2588A).
T2 construct: The mASH1L PHD domain (residue 2573–2624); MBP (cleaved yes); made in house; host or cells: Escherichia coli BL21 (DE3)
T2 sequence (Q99MY8 2573-2624 M2588A): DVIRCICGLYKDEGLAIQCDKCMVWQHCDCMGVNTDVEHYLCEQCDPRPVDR
In words: ITC, ASH1L PHD mutant M2588A. As to conditions: 1.5 mM H3 (1–15) peptide, 25°C, pH 7.2, 1×PBS, 100-μM ZnCl2.
Source text: as §1, with “sequence. After the GST tag was cut, this protein was used for the peptide array assay. The His-tagged Bromo-PHD tandem domain (residue 2425–2627) of mASH1L was subcloned into a pNIC-Bsa4 expression vector, which contains a His tag.” for “sequence.”
(§4) The bacteria were grown in Luria Broth (LB) media, supplemented with 100-μM ZnCl2 (all PHD constructs). […] The size and purity of the purified protein were monitored by SDS-PAGE. The PHD protein was concentrated with a filter tube (Millipore, Co. Cork, Ireland) and measured by UV absorbance at 280 nm. […]

The target in assay [3] is T1, ASH1L PHD finger. In words: NMR titration, KD estimation. As to conditions: 100 μM PHD, peptide 25-2,000 μM, 298 K, 1×PBS, pH 7.2, 100-μM ZnCl2; single-site model; mean ± SEM; H3 (1–15) peptides.
Source text: as §1, §2, §3

For the next assay, the target named is T3, ASH1L PHD W2597A (Mus musculus, UniProt Q99MY8, W2597A).
T3 construct: The mASH1L PHD domain (residue 2573–2624); MBP (cleaved yes); made in house; host or cells: Escherichia coli BL21 (DE3)
T3 sequence (Q99MY8 2573-2624 W2597A): T2 sequence (Q99MY8 2573-2624 M2588A) with A16M, W25A
The experiment in a line: ITC, ASH1L PHD mutant W2597A. As to conditions: 1.5 mM H3 (1–15) peptide, 25°C, pH 7.2, 1×PBS, 100-μM ZnCl2.
Source text: as §1, with “sequence. After the GST tag was cut, this protein was used for the peptide array assay. The His-tagged Bromo-PHD tandem domain (residue 2425–2627) of mASH1L was subcloned into a pNIC-Bsa4 expression vector, which contains a His tag.” for “sequence.”
as §4

The target in the next assay is T4, ASH1L PHD Q2590E (Mus musculus, UniProt Q99MY8, Q2590E).
T4 construct: The mASH1L PHD domain (residue 2573–2624); MBP (cleaved yes); made in house; host or cells: Escherichia coli BL21 (DE3)
T4 sequence (Q99MY8 2573-2624 Q2590E): T2 sequence (Q99MY8 2573-2624 M2588A) with A16M, Q18E
The experiment in a line: ITC, ASH1L PHD mutant Q2590E. To be noted: 1.5 mM H3 (1–15) peptide, 25°C, pH 7.2, 1×PBS, 100-μM ZnCl2.
Source text: as §1, with “sequence. After the GST tag was cut, this protein was used for the peptide array assay. The His-tagged Bromo-PHD tandem domain (residue 2425–2627) of mASH1L was subcloned into a pNIC-Bsa4 expression vector, which contains a His tag.” for “sequence.”
as §4

Substitutions are numbered along the chain they refer to.

In the case of `CC(C)[C@H](NC(=O)CNC(=O)CNC(=O)[C@@H](NC(=O)[C@H](C)NC(=O)[C@@H]1CCCN1C(=O)[C@H](C)N)[C@@H](C)O)C(=O)N[C@@H](CCCCN(C)C)C(=O)N[C@@H](CCCCN)C(=O)N1CCC[C@H]1C(=O)N[C@@H](Cc1c[nH]cn1)C(=O)N[C@@H](CCCNC(=N)N)C(=O)N[C@@H](Cc1ccc(O)cc1)C(=O)N[C@@H](CCCNC(=N)N)C(=O)N1CCC[C@H]1C(=O)O` [H3K36me2], the “binding by ITC, in words” value on ASH1L PHD finger [1] (25°C) is given as “weak binding affinity”. Also, on ASH1L PHD finger [2], the “HSQC chemical shift perturbation” value was “binds with methylated H3K4 peptides but not H3K4me0, H3K9me2, or H3K36me2 peptides”.

As for `C[C@H](N)C(=O)N[C@@H](CCCNC(=N)N)C(=O)N[C@H](C(=O)N[C@@H](CCCC[N+](C)(C)C)C(=O)N[C@@H](CCC(N)=O)C(=O)N[C@H](C(=O)N[C@@H](C)C(=O)N[C@@H](CCCNC(=N)N)C(=O)N[C@@H](CCCCN)C(=O)N[C@@H](CO)C(=O)N[C@H](C(=O)NCC(=O)NCC(=O)N[C@@H](CCCCN)C(=O)N[C@@H](C)C(=O)O)[C@@H](C)O)[C@@H](C)O)[C@@H](C)O` [H3K4me3], the Kd at ASH1L PHD M2588A is over 200 µM; at ASH1L PHD finger [3], 106 ± 6 µM; at ASH1L PHD W2597A, over 200 µM; at ASH1L PHD finger [1] (MicroCal iTC200, 25°C, 100 µM protein titrated with 3 mM peptide, H3 (1–15) peptides, H3 (2–16) K9me2, H3 (29–43) K36me2), 64 ± 4 µM; at ASH1L PHD Q2590E, 33 ± 8 µM.

What is called Kd is the constant that tells how readily two partners part at equilibrium.
